Experimental data taken from PubChem BioAssay (NCI).
“And” between values parts separate entries of the source, which are not always exact repeats. Identical values can stand only once.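 Values below derive from 48-hour exposures of cells grown in 96-well plates, with endpoints linearly interpolated between the two concentrations bracketing the appropriate inhibition level. Abbreviation: GI50, concentration required for 50% inhibition of growth. TGI is the concentration that stops growth completely.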

How the values were obtained:
Test in all cases: DTP human tumour cell line panel, 48 h
CAKI-1 renal = tested on: CAKI-1 renal
OVCAR-5 ovarian = tested on: OVCAR-5 ovarian
M14 melanoma = tested on: M14 melanoma
UO-31 renal = tested on: UO-31 renal
EKVX NSCLC = tested on: EKVX NSCLC
NCI-H522 lung = tested on: NCI-H522 lung
MCF7 breast = tested on: MCF7 breast
SF-295 CNS = tested on: SF-295 CNS
SK-OV-3 ovarian = tested on: SK-OV-3 ovarian
HL-60(TB) leukemia = tested on: HL-60(TB) leukemia

SMILES | GI50 (CAKI-1 renal) | TGI (CAKI-1 renal) | GI50 (OVCAR-5 ovarian) | TGI (OVCAR-5 ovarian) | GI50 (M14 melanoma) | TGI (M14 melanoma) | GI50 (UO-31 renal) | TGI (UO-31 renal) | GI50 (EKVX NSCLC) | TGI (EKVX NSCLC) | GI50 (NCI-H522 lung) | TGI (NCI-H522 lung) | GI50 (MCF7 breast) | TGI (MCF7 breast) | GI50 (SF-295 CNS) | TGI (SF-295 CNS) | GI50 (SK-OV-3 ovarian) | TGI (SK-OV-3 ovarian) | GI50 (HL-60(TB) leukemia) | TGI (HL-60(TB) leukemia)
COc1cc2cc(C(=O)Nc3ccccc3)c(N)nc2cc1OC | 34.5 µM | > 100 µM | > 100 µM | > 100 µM | 33.1 µM | > 100 µM | 25.7 µM | > 100 µM | 73.6 µM | > 100 µM | 32.7 µM | > 100 µM | 48.8 µM | > 100 µM | 46.7 µM | > 100 µM | > 100 µM | > 100 µM | 43.6 µM | > 100 µM
COc1ccc2c(c1)C(=O)CC(C(N)=O)C2 (centres undefined) |  | > 100 µM |  | > 100 µM |  | > 100 µM |  | > 100 µM |  | > 100 µM |  | > 100 µM |  | > 100 µM |  | > 100 µM |  | > 100 µM |  | > 100 µM
N/C(=N/O)NOCCC(N)C(=O)O (centres undefined) | > 100 µM | > 100 µM | > 100 µM | > 100 µM | > 100 µM | > 100 µM | > 100 µM | > 100 µM | > 100 µM | > 100 µM | > 100 µM | > 100 µM | > 100 µM | > 100 µM | > 100 µM | > 100 µM | > 100 µM | > 100 µM | > 100 µM | > 100 µM
[N-]=[N+]=NCCCn1c2c(c3ccccc3c1=O)C(=O)c1cc3c(cc1-2)OCO3 |  |  | > 100 µM | > 100 µM | 79.7 µM | > 100 µM | > 100 µM | > 100 µM | > 100 µM | > 100 µM | 15.6 µM | > 100 µM | 0.817 µM | > 100 µM | 44.1 µM | > 100 µM |  |  | 43.6 µM | > 100 µM
Cc1ccccc1N=C(c1ccccc1)C1C(=O)c2ccccc2C1=O | 21 µM | > 100 µM | 24.6 µM | > 100 µM | 2.67 µM | 13.2 µM | 4.14 µM | 47.4 µM | 22.2 µM | 87.6 µM | 1.99 µM | 17.7 µM | 1.48 µM | 19.3 µM | 13.8 µM | 36.5 µM | 3.68 µM | 77.2 µM | 9.49 µM | 32.6 µM
C[C@H]1O[C@@H](O[C@H]2[C@@H](O)C[C@H](O[C@H]3[C@@H](O)C[C@H](O[C@H]4CC[C@]5(C)C6CC[C@]7(C)[C@@H](C8=CC(=O)OC8)CC[C@]7(O)C6CC[C@@H]5C4)O[C@@H]3C)O[C@@H]2C)C[C@H](O)[C@@H]1O (some centres undefined) | 0.0126 µM | 0.0339 µM | 0.0383 µM | 0.111 µM | 0.0328 µM | 0.0986 µM | 0.0181 µM | 0.0722 µM | 0.0141 µM | 0.0383 µM |  | 0.0319 µM | 0.0181 µM | 0.11 µM | 0.014 µM | 0.0545 µM | 0.019 µM | 0.067 µM | 0.0114 µM | 0.0261 µM
COc1ccc(/C=C2\CCC(C)(CN(C)C)C2=O)cc1Br (centres undefined) |  | > 91.6 µM |  | > 100 µM |  | 35.1 µM |  | 33.3 µM |  | 49.3 µM |  | 32.8 µM |  | 42.1 µM |  | 80.7 µM |  | 70.5 µM |  | 85.2 µM
CNC(=O)c1cc(Oc2ccc(NC(=O)Nc3ccc(Cl)c(C(F)(F)F)c3)cc2)ccn1 | 3.21 µM and 2.01 µM and 2.91 µM | > 10 µM and 4.3 µM and 8.81 µM | 3.54 µM and 4.39 µM and 3.11 µM | > 10 µM and 19.9 µM and 15.7 µM | 2.15 µM and 2.11 µM and 2.18 µM | 7.98 µM and 5.03 µM and 5.96 µM | 3.08 µM and 3.03 µM and 2.57 µM | > 10 µM and 8.18 µM and 6.2 µM | 3.24 µM and 2.51 µM and 2.67 µM | > 10 µM and 7.86 µM and 13 µM | 1.79 µM and 2.14 µM and 2.06 µM | 5.79 µM and 5.64 µM and 6.29 µM | 2.62 µM and 2.41 µM and 2.82 µM | 9.82 µM and 7.38 µM and 10 µM | 2.34 µM and 1.83 µM and 1.69 µM | > 10 µM and 5.33 µM and 4.56 µM | 3.14 µM and 3.28 µM and 2.5 µM | 9.87 µM and 12.5 µM and 7.31 µM | 0.703 µM and 1.53 µM | 3.8 µM and 14.1 µM
Cc1cccc(Nc2ncc(-c3ccccc3)o2)c1 | > 25 µM | > 25 µM | > 25 µM | > 25 µM | > 25 µM | > 25 µM | > 25 µM | > 25 µM | > 25 µM | > 25 µM | > 25 µM | > 25 µM | 12.9 µM | > 25 µM | > 25 µM | > 25 µM | > 25 µM | > 25 µM | > 25 µM | > 25 µM
Nc1nc(N)c2c(n1)NC(c1ccc(Cl)cc1)C1CCc3ccccc3C1=N2 (centres undefined) | 4.33 µM | 18.8 µM | 14.9 µM | 28.1 µM | 10.4 µM | 22.1 µM | 3.63 µM | 17.4 µM | 3.62 µM | 21 µM | 5.21 µM | 20.9 µM | 2.41 µM | 10.4 µM | 3.37 µM | 14.7 µM | 11 µM | 23 µM |  | 
O=C(C#Cc1ccccc1)N1CCCCC1 |  | > 100 µM |  | > 100 µM |  | > 100 µM |  |  |  | > 100 µM |  | > 100 µM |  | > 100 µM |  | > 100 µM |  | > 100 µM |  | > 100 µM
OCC1OC(N2CCN(C3OC(CO)C(O)C(O)C3O)CC2)C(O)C(O)C1O (centres undefined) |  | > 100 µM |  | > 100 µM |  | > 100 µM |  | > 100 µM |  | > 100 µM |  | > 100 µM |  | > 100 µM |  | > 100 µM |  | > 100 µM |  | 
COC(=O)C1(N2CCOCC2)CCC([C@@H](c2ccccc2)C(C)[N+](=O)[O-])C1 (some centres undefined) |  |  |  | > 100 µM |  | > 100 µM |  | > 100 µM |  | > 100 µM |  |  |  | 54.5 µM |  | > 100 µM |  | > 100 µM |  | > 100 µM
O=C(O)[C@@H](Cc1ccccc1)NS(=O)(=O)c1ccc(-c2ccccc2)cc1 | > 100 µM | > 100 µM | > 100 µM | > 100 µM | > 100 µM | > 100 µM | 24.9 µM | 59.4 µM | > 100 µM | > 100 µM | > 100 µM | > 100 µM | > 100 µM | > 100 µM | > 100 µM | > 100 µM | > 100 µM | > 100 µM |  | 
O=C(Nc1ccc(-c2cn3ccccc3n2)cc1)c1cc(Br)ccc1O |  | > 100 µM |  | > 100 µM |  | > 100 µM |  |  |  | > 100 µM |  | > 100 µM |  | > 100 µM |  | > 100 µM |  | > 100 µM |  | > 100 µM
COc1ccc(C2CC(=O)Nc3c2c(C)nn3-c2nc3ccccc3[nH]2)cc1OC (centres undefined) | 3.83 µM | 24.3 µM | 25.4 µM | > 77.2 µM | 3.45 µM | 20.4 µM | 3.37 µM | 14.6 µM |  |  | 3.83 µM | 25.6 µM | 3.78 µM | > 100 µM | 1.77 µM | 6.91 µM | 2.89 µM | 6.49 µM | 3.29 µM | 12.6 µM
